Measured values reported in ChEMBL document CHEMBL1201862, “PubChem BioAssay data set” (2004).
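Exposure lasted 48 hours, with cells grown in 96-well plates and compounds tested at five concentrations. Here, GI50 denotes the concentration required for 50% inhibition of growth.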 Calls of active or inactive are those of the source. No stated cut-off is given here; in the data, active = GI50 up to about 1.1 µM and inactive = higher.

Experiments:
Assay in all cases: NCI tumour cell line growth inhibition, 48 h
CAKI-1 = system: CAKI-1
DU-145 = system: DU-145
EKVX = system: EKVX
HCC 2998 = system: HCC 2998
HCT-15 = system: HCT-15
HT-29 = system: HT-29
K562 = system: K562
KM12 = system: KM12
M14 = system: M14
MCF7 = system: MCF7
MDA-MB-435 = system: MDA-MB-435
RPMI-8226 = system: RPMI-8226
RXF 393 = system: RXF 393
SF-539 = system: SF-539
SR = system: SR
U-251 = system: U-251
IGROV-1 = system: IGROV-1
LOX IMVI = system: LOX IMVI
MDA-N = system: MDA-N
Hs-578T = system: Hs-578T

SMILES | GI50 (CAKI-1) | GI50 (DU-145) | GI50 (EKVX) | GI50 (HCC 2998) | GI50 (HCT-15) [µM] | GI50 (HT-29) | GI50 (K562) | GI50 (KM12) | GI50 (M14) | GI50 (MCF7) | GI50 (MDA-MB-435) | GI50 (RPMI-8226) | GI50 (RXF 393) | GI50 (SF-539) | GI50 (SR) | GI50 (U-251) | GI50 (IGROV-1) | GI50 (LOX IMVI) | GI50 (MDA-N) | GI50 (Hs-578T)
NS(=O)(=O)c1nnc(NS(=O)(=O)C(F)(F)F)s1 | > 100 µM (inactive) | > 100 µM (inactive) | > 100 µM (inactive) | > 100 µM (inactive) | > 100 | > 100 µM (inactive) | > 100 µM (inactive) | > 100 µM (inactive) | > 100 µM (inactive) | > 100 µM (inactive) | > 100 µM (inactive) | > 100 µM (inactive) | > 100 µM (inactive) | > 100 µM (inactive) | 46.7 µM (inactive) | > 100 µM (inactive) |  |  |  | 
CC1(C)OCC2OC3([C@H](O)CCO)OC(C)(C)OC3C2O1 (some centres not stated) | > 100 µM (inactive) | > 100 µM (inactive) | > 100 µM (inactive) | > 100 µM (inactive) | > 100 | > 100 µM (inactive) | > 100 µM (inactive) | > 100 µM (inactive) | > 100 µM (inactive) | > 100 µM (inactive) | > 100 µM (inactive) | > 100 µM (inactive) | > 100 µM (inactive) | > 100 µM (inactive) | > 100 µM (inactive) | > 100 µM (inactive) | > 100 µM (inactive) | > 100 µM (inactive) | > 100 µM (inactive) | 
COC(=O)[C@H]1CO[C@H]2C/C(C)=C/CC/C(C)=C/CC[C@@]3(C)O[C@@H]3C[C@H]21 | 36.1 µM (inactive) | 23.7 µM (inactive) | 19.5 µM (inactive) | 9.38 µM (inactive) | 9.12 | 17.9 µM (inactive) | 7.69 µM (inactive) | 9.57 µM (inactive) | 16.3 µM (inactive) | 16.9 µM (inactive) | 11.5 µM (inactive) | 14.1 µM (inactive) | 12.9 µM (inactive) | 15.6 µM (inactive) | 10.6 µM (inactive) | 18.6 µM (inactive) | 16 µM (inactive) |  |  | 14 µM (inactive)
CN1C(=O)C(=CNc2ccc(Cl)cc2Cl)C(=O)N(C)C1=O | > 100 µM (inactive) |  | > 100 µM (inactive) | > 100 µM (inactive) | > 100 | > 100 µM (inactive) | > 100 µM (inactive) | > 100 µM (inactive) | > 100 µM (inactive) | > 100 µM (inactive) | > 100 µM (inactive) | > 100 µM (inactive) | > 100 µM (inactive) | > 100 µM (inactive) | > 100 µM (inactive) | > 100 µM (inactive) | > 100 µM (inactive) | > 100 µM (inactive) |  | > 100 µM (inactive)
COc1ccc(Cc2coc3ccccc3c2=O)cc1OC | 11.6 µM (inactive) | > 100 µM (inactive) | 40.6 µM (inactive) |  | 31.8 | > 100 µM (inactive) | 72.6 µM (inactive) |  | 53.8 µM (inactive) | 46.2 µM (inactive) | 79.4 µM (inactive) | 33.3 µM (inactive) | 52.4 µM (inactive) | 42.8 µM (inactive) | 61.1 µM (inactive) | 72.1 µM (inactive) | > 100 µM (inactive) | 49.9 µM (inactive) |  | 56.6 µM (inactive)
Cc1n[nH]c(=O)n1N1C(=O)CCCC1=O | > 100 µM (inactive) | > 100 µM (inactive) | > 100 µM (inactive) | > 100 µM (inactive) |  | > 100 µM (inactive) | 63.4 µM (inactive) |  | > 100 µM (inactive) | > 100 µM (inactive) | > 100 µM (inactive) |  | > 100 µM (inactive) | > 100 µM (inactive) |  | > 100 µM (inactive) | > 100 µM (inactive) |  | > 100 µM (inactive) | > 100 µM (inactive)
Nc1c([N+](=O)[O-])nc(Cl)c2nncn12 | > 100 µM (inactive) |  | > 100 µM (inactive) | > 100 µM (inactive) | 19.3 | 96.8 µM (inactive) | > 72.4 µM (inactive) | > 100 µM (inactive) | > 100 µM (inactive) |  |  | > 47.1 µM (inactive) | > 100 µM (inactive) | > 95.5 µM (inactive) | 19.9 µM (inactive) | > 71.9 µM (inactive) | > 100 µM (inactive) | > 43.8 µM (inactive) |  | 
Cn1ccnc1Sc1ccc(/C=N\NC(=O)c2cccc(F)c2)cc1[N+](=O)[O-] | > 100 µM (inactive) | 71.6 µM (inactive) | 45.1 µM (inactive) | > 100 µM (inactive) | 78.7 | > 100 µM (inactive) | > 100 µM (inactive) | > 100 µM (inactive) | > 100 µM (inactive) | 27.8 µM (inactive) | 61.1 µM (inactive) | > 100 µM (inactive) | 34.8 µM (inactive) | 25.9 µM (inactive) | 33.2 µM (inactive) | 21.1 µM (inactive) | 18.8 µM (inactive) | > 100 µM (inactive) |  | 24.2 µM (inactive)
